This is an account of results in article PMC8070018, “Human Lanosterol 14-Alpha Demethylase (CYP51A1) Is a Putative Target for Natural Flavonoid Luteolin 7,3′-Disulfate” (Molecules, 2021).

Series [1] has as its target T1, human CYP51A1 (Homo sapiens, UniProt Q16850).
T1 construct: made in house
T1 sequence (Q16850 1-509): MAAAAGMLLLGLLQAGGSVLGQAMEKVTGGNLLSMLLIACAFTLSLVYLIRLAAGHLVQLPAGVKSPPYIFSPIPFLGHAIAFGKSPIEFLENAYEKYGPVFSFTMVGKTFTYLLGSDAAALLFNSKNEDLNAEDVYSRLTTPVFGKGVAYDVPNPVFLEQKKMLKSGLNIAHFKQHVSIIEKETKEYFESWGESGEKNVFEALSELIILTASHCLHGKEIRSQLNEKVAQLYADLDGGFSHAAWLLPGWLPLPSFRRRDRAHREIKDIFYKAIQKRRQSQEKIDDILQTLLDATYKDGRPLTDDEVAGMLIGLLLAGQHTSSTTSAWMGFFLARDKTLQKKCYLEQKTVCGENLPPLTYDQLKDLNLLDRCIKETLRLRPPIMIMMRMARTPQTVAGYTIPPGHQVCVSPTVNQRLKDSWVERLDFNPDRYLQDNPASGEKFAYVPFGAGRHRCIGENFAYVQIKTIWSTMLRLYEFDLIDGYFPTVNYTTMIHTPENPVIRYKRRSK
The following applies: cited from earlier work; for affinity: direct coordination with heme iron; for Kd: read-out: Kdapp.

For series [2], the target named is T1, human CYP51A1. The series can be described thus: Spectrophotometric titration (difference spectra) of CYP51A1 in the presence of lanosterol. The class given is binding. The following applies: for Kd: spectral titration, CYP51A1 4 μM, lanosterol 5 μM, pH 7.4, room temperature, read-out: apparent dissociation constant (Kdapp); for spectral response in the difference spectrum of CYP51A1: titration in the presence of lanosterol, baicalein and luteolin 7,3′-disulfate up to 30 μM, luteolin up to 15 μM. The protocol: Spectrophotometric titration was used to determine the apparent dissociation constants (Kdapp) for the enzyme–ligand complexes. The spectral measurements were performed on Cary Series UV-Vis-NIR (Agilent Technologies, Santa Clara, CA, USA) spectrophotometer using tandem quartz cuvettes (1 cm optical path) to exclude the absorption of ligands. Natural substrate, lanosterol, at final concentration 5 μM was added before the titration to the CYP51A1 (final concentration 4 μM) in 50 mM potassium phosphate buffer, pH 7.4. […] The difference spectra were recorded after each addition of ligand at room temperature in the range of 350–500 nm. The apparent dissociation constants were determined by plotting the absorbance changes in the difference spectra versus the concentration of free ligand and evaluated by using the Hill equation (OriginPro 8.1 statistical data analysis package): Aobs=Amax×(S×n/Kdapp×n+S×n), where Aobs—the observed change in the absorption, Amax—the absorbance change at ligand saturation, Kdapp—the apparent dissociation constant for the ligand–enzyme complex, S—the ligand concentration, n—a Hill coefficient.

A further series has as its system CYP1A, CYP2B and CYP3A4. The following applies: range over CYP1A; cited from earlier work.
The target of series [3] is T1, human CYP51A1. Put plainly: Surface plasmon resonance binding to immobilized CYP51A1. The following applies: SPR; for Kd: immobilized CYP51A1, read-out: Kd (equilibrium dissociation constant). On the technique in general: Surface plasmon resonance follows binding to a sensor surface in real time, without labels.
A further series relates to CYP3A4. The following applies: cited from earlier work.
For the next series, the system named is CYP2C19. The following applies: cited from earlier work.
The test system of another series is CYP2C9. On the set-up: method as in PMID 32661014. The following applies: comparable to positive control sulfaphenazole; cited from earlier work.
The target in series [4] is T2, human CYP51A1 (lanosterol 14α-demethylase) (Homo sapiens, UniProt Q16850).
T2 construct: made in house
T2 sequence (Q16850 1-509): T1 sequence (Q16850 1-509)
The series can be described thus: Lanosterol 14α-demethylase activity of CYP51A1 in the reconstituted system. In kind it is biochemical. The following applies: for Relative Activity: CYP51A1 0.5 μM, CPR 2.0 μM, lanosterol 50 μM.

The test system of another series is CYP2D6. On the set-up: method as in PMID 32942157. The following applies: 20 μM luteolin; cited from earlier work.
Series [5] relates to CYP1A2, CYP3A, CYP2B6, CYP2E1 and CYP2D6. More on the design: method as in PMID 28872689, PMID 18191104. The following applies: range over CYP1A2, CYP3A; cited from earlier work.
Where [6] appears, read: 25 °C, Langmuir 1:1 model, n = 3, read-out: koff (dissociation rate constant).
[7] abbreviates: 25 °C, Langmuir 1:1 model, n = 3, read-out: kon (association rate constant).
[8] abbreviates: 25 °C, Two state reaction model, n = 3.
[9] abbreviates: concentration-dependent, up to 30 μM.

The structures appear in SMILES notation. Where two headings read alike, the source gives them in different places.

For `CCCN(CCc1ccc(Cl)c(Cl)c1)CC(O)c1cccnc1` (stereo not drawn) [LK-935, 2-((3,4-Dichlorophenethyl)(Propyl)Amino)-1-(Pyridin-3-Yl)Ethanol], the affinity result on human CYP51A1 [1] is reported as “submicromolar range”.
`C[C@]12CC[C@H](O)CC1=CC[C@@H]1[C@@H]2CC[C@]2(C)C(c3cccnc3)=CC[C@@H]12` [abiraterone]: the Kd at human CYP51A1 [1] is 22 µM.
As to `O=c1cc(-c2ccccc2)oc2cc(O)c(O)c(O)c12` [baicalein], at human CYP51A1 [2], the Kd was 8.2 ± 0.4 µM and the “spectral response in the difference spectrum of CYP51A1” value is “reverse type I spectral response”. Besides, the IC50 (commonly the concentration needed to halve the response being measured) with CYP1A, CYP2B and CYP3A4 was 0.5 to 36 µM. Besides, the Kd on human CYP51A1 [3] (25 °C) amounted to 12.5 µM.
With `O=c1cc(-c2ccccc2)oc2cc(OS(=O)(=O)O)cc(O)c12` [chrysin 7-sulfate], the inhibition effect result with CYP3A4 and in the series with CYP2C19 was “slight inhibition effect” each time. Besides, the IC50 with CYP2C9 was 2.7 µM.
Consider `Clc1ccc(COC(Cn2ccnc2)c2ccc(Cl)cc2Cl)cc1` (stereo not drawn) [econazole], for which the affinity result at human CYP51A1 [1] was “submicromolar range”.
Consider `C[C@]12CC[C@H](O)CC1=CC[C@@H]1[C@@H]2CC[C@]2(C)C(n3cnc4ccccc43)=CC[C@@H]12` [galeterone], for which the Kd on human CYP51A1 [1] was 16 µM.
Regarding `CC(C)=CCC[C@@H](C)[C@H]1CC[C@@]2(C)C3=C(CC[C@]12C)[C@@]1(C)CC[C@H](O)C(C)(C)[C@@H]1CC3` [lanosterol], on human CYP51A1 [3] (setting [6]), the koff was 0.0001 s⁻¹. At human CYP51A1 [3] (setting [7]), the kon worked out at 41.4 M⁻¹ s⁻¹. Further, on human CYP51A1 [3] (25 °C), the Kd was found to be 2.4 µM.
On to `O=c1cc(-c2ccc(O)c(OS(=O)(=O)O)c2)oc2cc(OS(=O)(=O)O)cc(O)c12` [luteolin 7,3′-disulfate], for which the “spectral response in the difference spectrum of CYP51A1” value at human CYP51A1 [2] was “does not cause changes in the difference spectrum”. In [4] (compound 25 μM), the “Relative Activity” value was found to be 49.9%. The inhibition – broadly, the drop in the measured response relative to a control, in per cent – at 25 µM in [4] (compound 25 μM, read-out: level of inhibition) turned out to be 50.1%. The IC50 in [4] (reconstituted system, 5, 10, 25, 50 and 100 μM tested, read-out: apparent IC50) is greater than 25 µM. Also, at human CYP51A1 [3] (setting [6]), the koff was found to be 0.00084 s⁻¹. For the same molecule, the kon at human CYP51A1 [3] (setting [7]) was 294 M⁻¹ s⁻¹. Moreover, at human CYP51A1 [3] (25 °C), the Kd came to 2.9 µM. On human CYP51A1 [3] (relative to complex formation with lanosterol), the “association rate of the CYP51A1 complex compared to lanosterol” value is on record as “seven times faster”. Moreover, on human CYP51A1 [3] (relative to complex with lanosterol), the “dissociation rate of the CYP51A1 complex compared to lanosterol” value is listed as “about eight times higher”.
In the case of `O=c1cc(-c2ccc(O)c(O)c2)oc2cc(O)cc(O)c12` [luteolin], on human CYP51A1 [2], the Kd was 5.1 ± 0.5 µM and the “spectral response in the difference spectrum of CYP51A1” value is “reverse type I spectral response”. In the series with CYP2D6, the “O-demethylation of 3-[2-(N,N-diethyl-N-methyl-ammonium)ethyl]-7-methoxy-4-methylcoumarin inhibited to” value was 40% and the “inhibition in reaction with dextromethorphan” value is reported as less than 5%. The “Relative Activity” value in [4] (compound 25 μM) came to 92.6%. Also, at human CYP51A1 [3] (setting [8]), the “koff2 (backward rate constant for CP ↔ CP* transition)” value is given as “koff2 (1/s × 10^−4) = 14 ± 2” and the “kon2 (forward rate constant for CP ↔ CP* transition)” value is recorded as “kon2 (1/s × 10^−4) = 33 ± 4”. Moreover, at human CYP51A1 [3] (25 °C, Two state reaction model, n = 3, read-out: koff1 (dissociation rate constant)), the koff was found to be 0.019 s⁻¹. For the same molecule, the kon at human CYP51A1 [3] (25 °C, Two state reaction model, n = 3, read-out: kon1 (association rate constant)) amounted to 282 M⁻¹ s⁻¹. Also, at human CYP51A1 [3] (25 °C), the Kd is 20 µM. In addition, the IC50 in [5] was 1.6 to 133 µM.
For `O=c1c(O)c(-c2ccc(O)c(OS(=O)(=O)O)c2)oc2cc(O)cc(O)c12` [quercetin 3′-sulfate], the inhibition effect with CYP3A4 (setting [9]) and in the series with CYP2C19 (setting [9]) was no more than 50% throughout.
